Laboratory results published in PubChem BioAssay (NCI).
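Cultured in 96-well plates, cells were exposed to test compound for 48 hours across five concentrations. TGI marks complete inhibition of growth.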 Where a SMILES comes first, the peptide text is derived from it. [ ]: non-standard residue; d: D form. The star is where a group is joined. ξ: configuration not given here. X28 = COC1=CC(=O)N(C(=O)[C@@H](O*)C(C)C)[C@H]1Cc1ccccc1; X37 = O=C(OCc1ccccc1)[C@@H]1CCC[C@H]1N*; Fmoc = O=C(OCC1c2ccccc2-c2ccccc21)*; ξW = NC(Cc1c[nH]c2ccccc12)C(=O)O; NMeL = CN[C@@H](CC(C)C)C(=O)O; ξF = NC(Cc1ccccc1)C(=O)O; Hexanoyl = CCCCCC(=O)*; Boc = CC(C)(C)OC(=O)*; ξK = NCCCCC(N)C(=O)O; ξT = CC(O)C(N)C(=O)O; tBu = CC(C)(C)*

Assays:
Assay in all cases: NCI tumour cell line growth inhibition, 48 h
HOP-62 NSCLC = system: HOP-62 NSCLC
OVCAR-4 ovarian = system: OVCAR-4 ovarian
MDA-MB-231 breast = system: MDA-MB-231 breast
IGROV1 ovarian = system: IGROV1 ovarian
MOLT-4 leukemia = system: MOLT-4 leukemia
PC-3 prostate = system: PC-3 prostate
SN12C renal = system: SN12C renal
HOP-92 NSCLC = system: HOP-92 NSCLC
MALME-3M melanoma = system: MALME-3M melanoma
KM12 colon = system: KM12 colon
SF-295 CNS = system: SF-295 CNS

| SMILES | TGI (HOP-62 NSCLC) [µM] | TGI (OVCAR-4 ovarian) [µM] | TGI (MDA-MB-231 breast) [µM] | TGI (IGROV1 ovarian) [µM] | TGI (MOLT-4 leukemia) [µM] | TGI (PC-3 prostate) [µM] | TGI (SN12C renal) [µM] | TGI (HOP-92 NSCLC) [µM] | TGI (MALME-3M melanoma) [µM] | TGI (KM12 colon) [µM] | TGI (SF-295 CNS) [µM] |
| --- | --- | --- | --- | --- | --- | --- | --- | --- | --- | --- | --- |
| CC1(c2cccc(C3CCC4(C=CC3=O)OCCO4)c2)OCCO1 (centres undefined) | 47.9 | 18.1 | 26 | 32.7 | 12 | 31.1 | 27.7 | 17.8 | 10.9 | 33.4 | > 56.7 |
| COC(=O)c1c(C)nc(C)c(N=O)c1-c1ccccc1C(F)(F)F | > 100 | 31.8 | 32.3 | 33.9 | > 100 | > 100 | 38.6 | 34.8 | 30.2 | 35.9 | > 100 |
| CCCCc1cc2c(cc1O)CCC1C2CC[C@@]2(C)C1CC[C@@H]2O (some centres undefined) | 57.3 | 37.3 | 62.1 | 49.9 | 28.2 | 35.3 | 39.3 | 39.3 | 39.2 | 32.4 | 35.8 |
| S=C1c2cc(Cl)ccc2NC(=NC2CCCC2)C2CSCN12 (centres undefined) | > 100 | > 100 | > 100 | > 100 | > 100 | > 100 | > 100 | > 100 | > 100 | > 100 | > 100 |
| COc1cccc(-n2nnc3c(N)nc(N)nc32)c1 | > 100 | > 100 | > 100 | > 100 | > 100 | > 100 | > 100 | > 100 | > 100 | > 100 | > 100 |
| CCOC(=O)c1cc(-c2ccc(OC)c(OC)c2)cn1C | > 10 | > 10 | > 10 | > 10 | > 10 | > 10 | > 10 | > 10 | > 10 | > 10 | > 10 |
| COc1cc(O)c(C(=O)/C=C/c2ccc(O)cc2)cc1Oc1ccc(C(=O)/C=C/c2ccc(O)cc2)c(O)c1 | 9.17 | 8.37 | 9.75 | 3.9 | > 100 | 19.8 | 5.99 | 24.9 | 6.37 | 3.18 | 10.4 |
| CCCCc1ccc(N2C(=O)c3cc(C)cnc3S2(=O)=O)cc1 | > 100 | > 100 | > 100 | > 100 | > 100 | > 100 | > 100 | > 100 | > 100 | > 100 | > 100 |
| COc1ccc2c(c1)CC[C@@H]1C2CC[C@]2(C)OC(=O)CCC12 (some centres undefined) | 65.3 | 28.1 | 11.5 | > 100 | > 100 | 61.1 | 29.1 | 40.6 | 36 | > 100 | 46.1 |
| CCOC(=O)/C(O)=C(\C=N\C(=S)Nc1ccc(Cl)c(Cl)c1)C(=O)OCC | > 100 | > 100 | > 100 | > 100 | > 100 | > 100 | > 100 | > 100 | > 100 | > 100 | > 100 |
| CC(=O)OCc1ccc(-c2nc(C#N)c(N)o2)o1 | > 10 | > 10 | > 10 | > 10 | > 10 | > 10 | > 10 | > 10 | > 10 | > 10 | > 10 |
| CC1(C)OC1CC/C(=C/CBr)CBr (centres undefined) | 31.6 | 32.1 | 30.1 | 27.3 | 57.9 | 29.3 | 29.1 | 29.4 | 36.9 | 29.9 | 27.6 |
| O=[N+]([O-])c1ccccc1S(=O)(=O)N1CCCc2cc(Cl)ccc21 | > 100 | > 100 | > 100 | > 100 | > 100 | > 100 | > 100 | > 100 | > 100 | > 83.9 | > 100 |
| CC(OC(C)(C)C)C(NC(=O)C(CCCCNC(=O)OC(C)(C)C)NC(=O)C(Cc1c[nH]c2ccccc12)NC(=O)C(Cc1ccccc1)NC(=O)OCC1c2ccccc2-c2ccccc21)C(=O)NC(Cc1ccccc1)C(=O)N[C@@H]1CCC[C@H]1C(=O)OCc1ccccc1 (some centres undefined) (Fmoc-[ξF][ξW][ξK](Boc)[ξT](tBu)[ξF]-X37) | > 100 | > 100 | > 100 | > 100 | > 100 | > 100 | > 100 | > 100 | > 100 | > 100 | > 100 |
| c1ccc(COc2nc3ccc(C45CC6CC(CC(C6)C4)C5)cc3[nH]2)cc1 | > 74.8 | > 100 | > 80.9 | > 100 | > 66.7 | > 100 | > 100 | 49.8 | 86.1 | > 100 | > 100 |
| Cc1ccc(S(=O)(=O)OC2CN3CCC2CC3)cc1 (centres undefined) | > 100 | > 100 | > 100 | > 100 | > 100 | > 100 | > 100 | > 100 | > 100 | > 100 | > 100 |
| Nc1nc(Cl)cc(NCC2(CO)CC(CCCCc3ccccc3)C2)n1 (centres undefined) | > 100 | > 100 | > 100 | > 100 | > 100 | > 100 | > 100 | > 100 | > 100 | > 100 | > 100 |
| CCC(C#N)N(Cc1cccc(CN(C(C)=O)C(C#N)CC)c1)C(C)=O (centres undefined) | > 100 | > 100 | > 100 | > 100 | > 100 | > 100 | > 100 | > 100 | > 100 | > 100 | > 100 |
| CCCCCC(=O)N[C@H](C(=O)N[C@H](C(=O)N(C)[C@@H](CC(C)C)C(=O)N1CCC[C@H]1C(=O)N1CCC[C@H]1C(=O)O[C@H](C(=O)N1C(=O)C=C(OC)[C@@H]1Cc1ccccc1)C(C)C)C(C)C)C(C)C (Hexanoyl-VV[NMeL]PP-X28) | > 100 | > 100 | > 100 | > 100 | > 100 | > 80.5 | > 100 | > 100 | > 100 | > 100 | > 100 |
